Experimental data as given in patent US11427590B2, “Small molecule inhibitors of neutral sphingomyelinase 2 (nSMase2) for the treatment of neurodegenerative diseases” (The Johns Hopkins University, priority 2017, dated 2022).

Tests used:
[1] = background statement on known inhibitor; cited from earlier work
[2] = Pharmacokinetics, plasma and brain levels in mice
Procedure: Blood was obtained via cardiac puncture and brain tissue was dissected at 0.25, 0.5, 1, 2, 4, 6 and 8 h post dose (n=3 per gender and time point). Plasma was harvested from blood by centrifugation. Subsequently, samples were extracted from plasma and brain by a one-step protein precipitation using acetonitrile followed by vortexing for […] and centrifugation (10,000 g for 10 min) as we have described previously. Rais, et al. Once extracted, the samples were reconstituted into a mobile phase and analyzed via LC/MS/MS. Plasma concentrations (nM) as well as tissue concentrations (pmol/g) were determined and plots of mean plasma concentration vs. time were constructed for PK analysis. Non-compartmental-analysis modules in WinNonlin® (version 5.3) were used to assess pharmacokinetic parameters including maximal concentration (Cmax), time to Cmax (Tmax), area under the curve extrapolated to infinity (AUC0-∞) and brain-to-plasma (B/P) ratios.

[3] = system: GFAP-GFP mice; assay: Inhibition of exosome release in vivo after striatal IL-1β injection; settings: mouse
Procedure: Striatal injections of IL-1β and exosome measurements are performed as previously described by our group in adult (2-3 month) male GFAP-GFP mice (Jackson Laboratories). Dickens, et al.; McCluskey, et al. Mice are anesthetized with 3% Isoflourane (Baxter) in oxygen (Airgas), and placed in a stereotaxic frame (Stoelting Co.). A small burr hole is drilled in the skull over the left striatum using a dental drill (Fine Scientific Tools). IL1β (0.1 ng/3 μl) is injected (total volume of 3 μl) at the rate 0.5 μl/min via a pulled glass capillary tip diameter <50 μm using the stereotaxic coordinates: A/P+1; M/L-2; -3 D/V. Following infusion, the capillary is held in place for 5 min to allow for solution to diffuse into the tissue. Animals are sacrificed at 2, 12 or 24 h by an overdose of anesthetic, and transcardially perfused with ice-cold saline containing heparin (20 μl per 100 ml, Sigma). Blood is rapidly isolated and flash frozen. […]
GFAP-GFP mice that release green EVs from astrocytes into the systemic circulation were used so that exosome release from astrocytes in plasma can be followed. […] The concentration of immunoprecipitated GFP+ EVs is quantified using ZetaView nanoparticle tracking analysis (Particle Metrix) as described in the cell-based exosome release. […]

[4] = system: alkaline phosphatase; assay: Inhibition of related enzyme alkaline phosphatase; settings: related enzyme (phosphomonoesterase)
Procedure: Phosphorylcholine undergoes dephosphorylation in a reaction catalyzed by alkaline phosphatase (4 U/mL) to produce choline which in turn is oxidized by choline oxidase (0.1 U/mL) to betaine and hydrogen peroxide (H2O2). Hydrogen peroxide is made to react with Amplex red (50 μM) in the presence of horseradish peroxidase (HRP, 1 U/mL) to generate the fluorescent molecule resorufin. Generation of fluorescence is monitored by measuring relative florescence units (RFU) with excitation at 530 nm and emission at 590 nm. Extent of fluorescence is directly proportional to the extent of SM hydrolysis. Substrate stock solution is prepared in 2% Triton X-100 and sonicated for 1 min. Reactions are carried out for 1 h at 37° C. in 100 mM Tris-HCl pH 7.4, 10 mM MgCl2, 0.2% Triton X-100. This assay has been optimized in 384-well format (50 μL total volume per well) under conditions where nSMase2-catalyzed hydrolysis of SM is linear with respect to nSMase2 concentration, time of incubation and SM concentration (FIGS. 3A-3C). The assay has high reliability (Z′=0.8-0.9). It is used for compound screening, IC50 determinations and mode of inhibition studies. IC50 determinations are carried out in duplicate eight-point dose response curves. A counter screen is concomitantly carried out to identify false positives resulting from inhibition of the coupling enzymes. […]

[5] = system: rat astrocytes; assay: Inhibition of exosome release from primary astrocytes in vitro; type: cell-based; settings: 0.3-10 μM, 2 h after treatment, vs DMSO (0.02%)
Procedure: The effect of nSMase2 inhibitors on the manufacturing and release of ceramide rich exosomes from primary astrocytes was investigated as previously described. Dickens, et al. Briefly, rat astrocytes are seeded onto 6-well plates at a density of 20,000 cells/well. Twenty-four hours after seeding, astrocytes are washed with PBS and the medium changed to media without FBS. Absence of FBS mimics a trophic factor withdrawal stimulus causing the release of exosomes via a nSMase2-dependent pathway. Astrocytes are then treated with nSMase2 inhibitors at concentrations in the range 0.03-30 μM. DMSO (0.02%) is used as control. Two hours after treatment, media is collected and centrifuged at 2700 g for 15 min (4° C.). Supernatant is further centrifuged at 10,000 g for 15 min (4° C.) to remove large particles such as apoptotic bodies. Astrocyte-derived extracellular vesicles (EVs) are isolated via ultracentrifugation at 100,000 g for 3 h at 4° C. Fractions containing EV are washed twice with 5 ml PBS and the final pellet resuspended in PBS. This isolation procedure results in the isolation of EVs with a narrow size range and protein markers consistent with exosomes. Dickens, et al. The number of EVs is quantified using ZetaView Nanoparticle Tracker (Particle Metrix GmBH, Meerbusch, Germany) and the corresponding ZetaVeiw software (8.03.04.01). Nanosphere size standard 100 nm (Thermo Scientific) is used to calibrate the instrument prior to sample readings. For each sample 1 mL of the supernatant is injected into the sample-carrier cell and the particle count measured at 5 positions, with 2 cycles of reading per position. Cells are washed with PBS after every sample. Mean concentration of EVs/mL (±SEM) is calculated from 6 replicates. This screening assay is reliable with a Z′=0.75.
Referring now to FIG. 4A and FIG. 4B, the ability of compound 38 and several of its analogs to inhibit exosome release in vitro was evaluated as previously described. […] Two hours after treatment, exosomes were isolated from the media and quantified using ZetaView Nanoparticle Tracker. The mean concentration of exosomes (EVs/mL±SEM) was calculated from 6 replicate experiments (see FIG. 4). […] Baseline exosome release can be variable between experiments; as a result, inhibition is always compared relative to vehicle treatment within the same experiment. Structures of compounds with their corresponding IC50s are provided in the second row of FIG. 4.

[6] = system: panel of 44 selected targets
[7] = Phase I metabolic stability in human liver microsomes; type: in vitro ADME; settings: 37° C.
Procedure: (§1) Phase I metabolic stability in both mouse and human liver microsomes was performed as described previously. Rais et al. Briefly, compounds are spiked in liver microsomes (mouse, human) and incubated in an orbital shaker at 37° C. […] Compound disappearance is monitored over time using LC/MS/MS.

[8] = biological target: acid sphinghomyelinase (Homo sapiens (Human), UniProt P17405); assay: Inhibition of related enzyme acid sphingomyelinase; type: biochemical; settings: related enzyme (phosphodiesterase)
[9] = Phase I metabolic stability in mouse liver microsomes; type: in vitro ADME; settings: 37° C.
Procedure: as §1

Sequence of acid sphinghomyelinase (P17405 47-631): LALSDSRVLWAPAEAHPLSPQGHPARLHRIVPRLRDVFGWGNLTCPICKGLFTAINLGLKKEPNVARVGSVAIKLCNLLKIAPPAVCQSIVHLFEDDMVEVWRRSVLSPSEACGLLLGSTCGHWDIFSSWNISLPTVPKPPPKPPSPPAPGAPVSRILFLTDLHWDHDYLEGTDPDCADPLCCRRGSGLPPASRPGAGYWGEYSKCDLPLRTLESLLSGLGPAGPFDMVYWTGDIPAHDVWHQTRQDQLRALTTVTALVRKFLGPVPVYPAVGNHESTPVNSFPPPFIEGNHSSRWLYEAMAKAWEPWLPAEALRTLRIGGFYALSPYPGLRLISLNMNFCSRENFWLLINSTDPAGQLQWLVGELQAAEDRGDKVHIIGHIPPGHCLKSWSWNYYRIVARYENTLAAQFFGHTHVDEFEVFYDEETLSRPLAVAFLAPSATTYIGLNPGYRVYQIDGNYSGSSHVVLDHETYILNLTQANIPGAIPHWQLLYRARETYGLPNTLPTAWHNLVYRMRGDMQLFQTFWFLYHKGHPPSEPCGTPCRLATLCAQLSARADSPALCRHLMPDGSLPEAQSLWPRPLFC

SMILES	solubility [1]	systemic exposure ([2]; 10 mg/kg i.p.)	brain exposure ([2]; 10 mg/kg peroral)	plasma exposure ([2]; 10 mg/kg peroral)	exosomes in plasma after striatal IL-1β injection [3]	inhibition of alkaline phosphatase [4]	exosome release from astrocytes [5]	inhibition of positive hits ([6]; 10 μM, all positive hits)	segregation in potency between off targets and nSMase2 ([6]; off targets vs nSMase2) [fold]	Human Liver Microsome (+) NADPH Remaining at 60 min [7] [%]	inhibition of acid sphinghomyelinase [8]	Mouse Liver Microsome (+) NADPH % Remaining at 60 min [9] [%]
O=C(/C=C/c1ccc(/C=C/C(=O)Nc2ccc(C3=NCCN3)cc2)cc1)Nc1ccc(C2=NCCN2)cc1 [GW4869]	poor solubility	–	–	–	–	–	–	–	–	–	–	–
COc1ccc(-c2c(C)nc3c(N4CC[C@@H](NC(=O)Oc5ccccc5)C4)cc(C)nn23)cc1OC [compound 38, Phenyl (R)-(1-(3-(3,4-dimethoxyphenyl)-2,6-dimethylimidazo[1,2-b]pyridazin-8-yl)pyrrolidin-3-yl) carbamate]	–	high systemic exposures	high brain exposures	high plasma exposures	significantly reduced the increased exosomes	not inhibiting	decreased the number of exosomes released from astrocytes in a dose dependent manner	less than 100%	≥ 20	103 ± 14	not inhibiting	–
COc1ccc(-c2c(C)nc3c(N4CC[C@@H](NS(=O)(=O)c5ccc(C(F)(F)F)cc5)C4)cc(C)nn23)cc1OC [compound 30, (R)—N-(1-(3-(3,4-dimethoxyphenyl)-2,6-dimethylimidazo[1,2-b]pyridazin-8-yl)pyrrolidin-3-yl)-4-(trifluoromethyl)benzenesulfonamide]	–	–	–	–	–	–	decreased the number of exosomes released from astrocytes in a dose dependent manner	–	–	61 ± 3	–	15 ± 5
